In data set [1] the test system is Mus musculus. Put plainly: Anticonvulsant activity against scMet-induced seizures in mouse at 30 mg/kg, ip after 4 hrs. It is filed as functional, organism-based. Further details: dose 30 mg/kg.
Data set [2] concerns Mus musculus. Put plainly: Anticonvulsant activity against maximal electroshock-induced seizures in mouse at 300 mg/kg, ip after 0.5 hrs. On the set-up: dose 300 mg/kg. It is filed as functional, organism-based.
Data set [3] concerns Rattus norvegicus. Put plainly: Neurotoxicity in rat at 30 mg/kg, po after 4 hrs by rotarod test. It is filed as toxicity, organism-based. On the set-up: dose 30 mg/kg, route oral. The settings on record: in vivo.
Data set [4] relates to Mus musculus. Briefly: Anticonvulsant activity against scMet-induced seizures in mouse at 100 mg/kg, ip after 0.5 hrs. Further details: dose 100 mg/kg. In kind it is functional, organism-based.
Data set [5] deals with Mus musculus. Put plainly: Anticonvulsant activity against maximal electroshock-induced seizures in mouse at 300 mg/kg, ip after 4 hrs. In kind it is functional, organism-based. Further details: dose 300 mg/kg. A general note: Protection in the maximal electroshock model is a classic sign of anticonvulsant action.
Data set [6] relates to Mus musculus. Briefly: Neurotoxicity in mouse at 100 mg/kg, ip after 4 hrs by rotarod test. Further details: dose 100 mg/kg, route intraperitoneal. In kind it is toxicity, organism-based. The settings on record: in vivo.
The test system of data set [7] is Rattus norvegicus. Put plainly: Neurotoxicity in rat at 30 mg/kg, po after 0.5 hrs by rotarod test. On the set-up: dose 30 mg/kg, route oral. In kind it is toxicity, organism-based. The settings on record: in vivo. Background: The rotarod test checks motor coordination on a turning rod.
Data set [8] relates to Mus musculus. Put plainly: Anticonvulsant activity against maximal electroshock-induced seizures in mouse at 30 mg/kg, ip after 0.5 hrs. It is filed as functional, organism-based. On the set-up: dose 30 mg/kg.
In data set [9] the test system is Rattus norvegicus. Put plainly: Anticonvulsant activity against maximal electroshock-induced seizures in rat at 30 mg/kg, po after 0.5 hrs. It is filed as functional, organism-based. Further details: dose 30 mg/kg.
Data set [10] relates to Rattus norvegicus. Briefly: Neurotoxicity in rat at 30 mg/kg, po after 2 hrs by rotarod test. On the set-up: dose 30 mg/kg, route oral. In kind it is toxicity, organism-based. As to conditions: in vivo.
In data set [11] the test system is Mus musculus. Briefly: Anticonvulsant activity against scMet-induced seizures in mouse at 30 mg/kg, ip after 0.5 hrs. In kind it is functional, organism-based. On the set-up: dose 30 mg/kg.
Data set [12] has as its system Rattus norvegicus. Briefly: Neurotoxicity in rat at 30 mg/kg, po after 0.25 hrs by rotarod test. As to conditions: in vivo. On the set-up: dose 30 mg/kg, route oral. In kind it is toxicity, organism-based.
Data set [13] deals with Mus musculus. Put plainly: Anticonvulsant activity against scMet-induced seizures in mouse at 300 mg/kg, ip after 0.5 hrs. It is filed as functional, organism-based. On the set-up: dose 300 mg/kg.
For data set [14], the system named is Mus musculus. Briefly: Anticonvulsant activity against scMet-induced seizures in mouse at 100 mg/kg, ip after 4 hrs. It is filed as functional, organism-based. Further details: dose 100 mg/kg.
The subject of data set [15] is Rattus norvegicus. Put plainly: Anticonvulsant activity against maximal electroshock-induced seizures in rat at 30 mg/kg, po after 1 hr. In kind it is functional, organism-based. On the set-up: dose 30 mg/kg.
For data set [16], the system named is Mus musculus. Put plainly: Anticonvulsant activity against maximal electroshock-induced seizures in mouse at 100 mg/kg, ip after 0.5 hrs. In kind it is functional, organism-based. Further details: dose 100 mg/kg.
Data set [17] has as its system Rattus norvegicus. Briefly: Neurotoxicity in rat at 30 mg/kg, po after 1 hr by rotarod test. It is filed as toxicity, organism-based. On the set-up: dose 30 mg/kg, route oral. As to conditions: in vivo.
Data set [18] deals with Mus musculus. Put plainly: Neurotoxicity in mouse at 30 mg/kg, ip after 0.5 hrs by rotarod test. In kind it is toxicity, organism-based. Further details: dose 30 mg/kg, route intraperitoneal. The settings on record: in vivo.
Data set [19] has as its system Mus musculus. Briefly: Anticonvulsant activity against maximal electroshock-induced seizures in mouse at 30 mg/kg, ip after 4 hrs. On the set-up: dose 30 mg/kg. It is filed as functional, organism-based.
Data set [20] has as its system Rattus norvegicus. Put plainly: Anticonvulsant activity against maximal electroshock-induced seizures in rat at 30 mg/kg, po after 2 hrs. In kind it is functional, organism-based. On the set-up: dose 30 mg/kg.
For data set [21], the system named is Mus musculus. Briefly: Anticonvulsant activity against scMet-induced seizures in mouse at 300 mg/kg, ip after 4 hrs. It is filed as functional, organism-based. On the set-up: dose 300 mg/kg.
Data set [22] relates to Mus musculus. Briefly: Neurotoxicity in mouse at 30 mg/kg, ip after 4 hrs by rotarod test. It is filed as toxicity, organism-based. On the set-up: dose 30 mg/kg, route intraperitoneal. As to conditions: in vivo.
The test system of data set [23] is Mus musculus. Put plainly: Anticonvulsant activity against maximal electroshock-induced seizures in mouse at 100 mg/kg, ip after 4 hrs. In kind it is functional, organism-based. Further details: dose 100 mg/kg.
Data set [24] has as its system Rattus norvegicus. Put plainly: Anticonvulsant activity against maximal electroshock-induced seizures in rat at 30 mg/kg, po after 0.25 hrs. It is filed as functional, organism-based. On the set-up: dose 30 mg/kg.
Data set [25] in a line: Neurotoxicity in ip dosed mouse by rotarod test. In kind it is toxicity, organism-based. As to conditions: in vivo.
Data set [26] is filed under the species Mus musculus. Briefly: Protective index, ratio of TD50 for mouse by rotarod test to ED50 for mouse by MES test. It is filed as functional.
The test system of data set [27] is Mus musculus. Put plainly: Anticonvulsant activity against maximal electroshock-induced seizures in ip dosed mouse. It is filed as functional.
The species entered for data set [28] is Mus musculus. Put plainly: Protective index, ratio of TD50 for mouse by rotarod test to ED50 for mouse by scMET test. It is filed as functional.
The test system of data set [29] is Mus musculus. Put plainly: Neurotoxicity in mouse at 300 mg/kg, ip after 4 hrs by rotarod test. It is filed as toxicity, organism-based. Further details: dose 300 mg/kg, route intraperitoneal. As to conditions: in vivo.
In data set [30] the test system is Mus musculus. Briefly: Anticonvulsant activity against scMet-induced seizures in ip dosed mouse. In kind it is functional.
Data set [31] is described as follows: Displacement of [3H]nitrendipine from voltage-dependent calcium channel in rat brain cortex by scintillation counting. It is filed as tissue-based. In general terms: Displacement assays read how much labelled ligand stays bound in the presence of the test substance.
The subject of data set [32] is Mus musculus. Put plainly: Neurotoxicity in mouse at 100 mg/kg, ip after 0.5 hrs by rotarod test. In kind it is toxicity, organism-based. On the set-up: dose 100 mg/kg, route intraperitoneal. The settings on record: in vivo.
The test system of data set [33] is Rattus norvegicus. Briefly: Anticonvulsant activity against maximal electroshock-induced seizures in rat at 30 mg/kg, po after 4 hrs. It is filed as functional, organism-based. On the set-up: dose 30 mg/kg.
For data set [34], the system named is Mus musculus. Put plainly: Neurotoxicity in mouse at 300 mg/kg, ip after 0.5 hrs by rotarod test. Further details: dose 300 mg/kg, route intraperitoneal. The settings on record: in vivo. It is filed as toxicity, organism-based.

Activity calls are given as the source filed them. The calls are words filed in the database; no cut-off is given here. Some results are limits rather than exact numbers.

Turning to `CC(CCl)NCc1ccc2oc3cc(Cl)ccc3c(=O)c2c1.Cl` (racemic), the result in data set [1], in [2], in data set [4], in data set [5], in data set [8] and in data set [9] was inactive. In addition, the result in [11], in [13], in data set [14], in data set [15], in [16] and in data set [19] was inactive. In addition, the result in data set [20], in [21] and in data set [23] was inactive. In addition, the Neurotoxicity entry in data set [3], in data set [6], in data set [7], in data set [10], in data set [12] and in data set [17] was “Not Active” in each case. Moreover, the Neurotoxicity entry in data set [18] and in data set [22] was “Not Active” each time.

For `C[C@H](CO)NCc1ccc2oc3cc(Cl)ccc3c(=O)c2c1`, the result in data set [1], in data set [4], in [24], in [8], in data set [9] and in [11] was inactive. In addition, the outcome in [13], in data set [14], in data set [15], in [19], in data set [21] and in [23] was inactive. In addition, the result in data set [2] and in data set [5] was Active. The Neurotoxicity entry in data set [3], in data set [6], in data set [7], in data set [10], in [12] and in data set [17] was “Not Active” each time. Besides, the Neurotoxicity result in data set [18], in data set [29] and in data set [22] was “Not Active” each time. Further, the TD50 – broadly, the dose at which the toxic effect under study appears in half of the subjects – in data set [25] was 483 mg/kg. Further, the PI in [26] is 6.23; in [28] it was less than 0.96. Also, the ED50 (in general, the midpoint of the dose-response relation) in data set [27] was 77.4 mg/kg; in [30] it was more than 500 mg/kg.

With `CCCC(CCC)C(=O)[O-].[Na+]` [VALPROATE SODIUM], the TD50 in data set [25] turned out to be 483 mg/kg. The compound also showed a 50% effective dose (ED50) in data set [30] of 290 mg/kg.

Take `COC(=O)C1=C(C)NC(C)=C(C(=O)OC)C1c1ccccc1[N+](=O)[O-]` [NIFEDIPINE]: the EC50 (in general, the concentration needed to bring the measured effect to its halfway point) in data set [31] was found to be 1 nM.

With `O=C1NC(=O)C(c2ccccc2)(c2ccccc2)N1` [PHENYTOIN], the PI was 6.6 in [26] and less than 0.9 in data set [28]. Moreover, the results for the ED50 in [27] and in [30] were 6.48 mg/kg and more than 50 mg/kg, respectively.

For the compound `CC(C)(CCO)NCc1ccc2oc3cc(Cl)ccc3c(=O)c2c1`, the outcome in data set [1], in data set [4], in data set [5], in [24], in data set [8] and in data set [9] was inactive. Besides, the result in data set [11], in [13], in data set [14], in data set [15], in data set [33] and in [19] was inactive. Further, the result in data set [20], in data set [21] and in [23] was inactive. For the same compound, in data set [2], the outcome was Active. The Neurotoxicity result in data set [3], in data set [6], in data set [7], in data set [10], in [12] and in data set [32] was “Not Active” in each case. For the same compound, the Neurotoxicity entry in data set [17], in data set [29] and in [22] was “Not Active” throughout.

With `NC(=O)CNC(=O)c1ccc2oc3ccccc3c(=O)c2c1`, the outcome in [1], in data set [2], in data set [4], in [5], in data set [8] and in [11] was inactive. Besides, the result in data set [13], in data set [14], in data set [16], in [19], in data set [21] and in [23] was inactive. Also, the Neurotoxicity result in data set [34], in data set [6], in data set [32], in [18], in [29] and in [22] was “Not Active” in each case.

`CC(CO)NC(=O)c1ccc2oc3ccccc3c(=O)c2c1` (stereo not drawn): the result in data set [1], in data set [2], in [4], in data set [5], in [8] and in [11] was inactive. For the same compound, the result in [13], in data set [14], in [16], in [19], in data set [21] and in data set [23] was inactive. Moreover, the Neurotoxicity result in data set [34], in data set [6], in [32], in [18], in [29] and in data set [22] was “Not Active” throughout.

Take `CC[C@@H](CO)NCc1ccc2oc3cc(Cl)ccc3c(=O)c2c1`: the result in data set [1], in data set [4], in data set [24], in data set [8], in data set [9] and in data set [11] was inactive. Moreover, the outcome in data set [13], in [14], in data set [19], in [20], in data set [21] and in [23] was inactive. Further, the result in [2], in data set [5] and in [16] was Active. The Neurotoxicity entry in data set [3] was “Not Active”; in [34], “Neurotoxic”; in [7], “Not Active”; in [10] it was “Not Active”; in data set [12] it was “Not Active”; in data set [17], “Not Active”. For the same compound, the Neurotoxicity result in data set [18] is listed as “Not Active”; in [29] it was “Neurotoxic”; in [22] it was “Not Active”.

As to `CC[C@@H](CO)NCCOc1c(C)cccc1C`, the PI in data set [26] is 4.55. In data set [27], this compound yielded an ED50 of 7.57 mg/kg.

Consider `CCOC(=O)CNC(=O)c1ccc2oc3ccccc3c(=O)c2c1`, for which the result in data set [1], in [2], in [4], in data set [5], in data set [8] and in [11] was inactive. In addition, the outcome in data set [13], in data set [14], in [16], in [19], in [21] and in [23] was inactive. The Neurotoxicity result in data set [34], in [6], in data set [32], in data set [18], in [29] and in data set [22] was “Not Active” in each case.

For the origin of these results see ChEMBL document CHEMBL1155915, “Anticonvulsant activity of some xanthone derivatives” (Bioorg Med Chem, 2008).
